Measured values taken from US10792265B2, “Methods of treating or preventing fibrotic lung diseases” (YALE UNIVERSITY, priority 2014, dated 2020).
“Also recorded” adds a separate entry of the source.

Tests used:
[1] = tested on: bleomycin-induced fibrosis in mice; test: Bleomycin-induced lung fibrosis model in mice (hydroxyproline, collagen, qRT-PCR of fibrotic genes, Masson trichrome); type: in vivo
[2] = T3 and TSH level in the sera of treated bleomycin mice (ELISA); type: in vivo
[3] = tested on: alveolar epithelial cells isolated from bleomycin injured lungs; test: Gene expression analysis in alveolar epithelial cells isolated from bleomycin injured lungs before and after T3 aerosolized delivery; type: in vivo
From the text: Experiments were run to delineate a potential mechanistic pathway through which thyroid hormones exert their protective role in the development and progression of experimental lung fibrosis. […] Similar experiments were run in A549 lung adenocarcinoma cell lines before and after thyroid hormone administration.

[4] = tested on: bleomycin-induced mortality; test: Bleomycin-induced mortality by Kaplan-Meier survival curve analysis; type: in vivo, mice; settings: bleomycin 4.5 U/kg intratracheally day 0; T3 40 μg/kg nebulized and inhaled every other day since day 7 (FIG. 5F)
Description: 40 μg/kg of T3 was nebulized and inhaled day 10, 12, 14, 16 after bleomycin treatment at dose of 1.5 U/kg, Saline as control. Mice were sacrificed at day 21. […] FIG. 5B: Col1a1 mRNA expression was detected by QRT-PCR (n=8 in each group). FIG. 5C: Col3a1 mRNA expression was detected by QRT-PCR. […] FIG. 5F: Bleomycin-induced mortality by Kaplan-Meier survival curve analysis. 4.5 U/kg of bleomycin was delivered intratracheally at day 0, 40 μg/kg of T3 was nebulized and inhaled every other day since day 7, saline treatment as control group.

[5] = treatment injected at day 3 after bleomycin, sacrificed day 14 (FIG. 4A)
[6] = treatment injected at day 7 after bleomycin, sacrificed day 14 (FIG. 4C)

SMILES: CCCc1cc(=O)[nH]c(=S)[nH]1 [PTU, propylthiouracil]
- Bleomycin-induced lung fibrosis (overall severity) ([1]; bleomycin 1.5 U/Kg intratracheally, PTU 100 mg/kg intraperitoneally at day 3 and day 7, sacrificed day 14): more severe bleomycin-induced lung fibrosis; also recorded: aggravates fibrosis
- Hydroxyproline content in the right lungs ([1]; bleomycin 1.5 U/Kg, PTU 100 mg/kg intraperitoneally day 3 and day 7, day 14 (FIG. 3A)): significant elevation
- Collagen content in the right lungs ([1]; bleomycin 1.5 U/Kg, PTU 100 mg/kg intraperitoneally day 3 and day 7, day 14 (FIG. 3B)): significant elevation
- Hydroxyproline measurements [1, 5]: significant increase
- Hydroxyproline measurements [1, 6]: significant increase

SMILES: N[C@@H](Cc1cc(I)c(Oc2ccc(O)c(I)c2)c(I)c1)C(=O)O [T3, (S)-2-amino-3-[4-(4-hydroxy-3-iodophenoxy)-3,5-diiodophenyl]propanoic acid]
- T3 level in the sera by ELISA ([2]; after T3 inhalation 40 μg/kg in bleomycin mice, n=10 (FIG. 5D)): does not affect the level of T3
- Gene expression in alveolar epithelial cells [3]: upregulation of several anti-apoptotic genes
- Bleomycin-induced fibrosis (overall) ([1]; T3 40 μg/kg nebulized and inhaled day 10, 12, 14, 16 after bleomycin 1.5 U/kg, sacrificed day 21): blunts bleomycin-induced fibrosis
- Hydroxyproline content ([1]; T3 inhalation 40 μg/kg day 10, 12, 14, 16 after bleomycin 1.5 U/kg, day 21 (FIG. 5A)): statistically significant blunting; also recorded: declines hydroxyproline content
- Survival / bleomycin-induced mortality (Kaplan-Meier) [4]: significant increase in survival; also recorded: reduces mortality

SMILES: N[C@@H](Cc1cc(I)c(Oc2cc(I)c(O)c(I)c2)c(I)c1)C(=O)O [T4, (S)-2-amino-3-[4-(4-hydroxy-3,5-diiodophenoxy)-3,5-diiodophenyl]propanoic acid]
- Circulating levels of T3 ([2]; after T4 systemic administration in bleomycin mice, n=10, p<0.05 (FIG. 4E)): statistically significant increase
- Pulmonary fibrosis / fibrotic process (fibrotic markers and structural changes) ([1]; T4 after bleomycin instillation, intraperitoneal, 40 mg/kg or 50 mg/kg, sacrificed day 14): significant attenuation of the fibrotic process; also recorded: attenuates the pulmonary fibrosis
- Gene expressions of Col1a1, Col3a1, S100a4 and Acta2 (QRT-PCR) ([1]; T4 injected at day 3 after bleomycin, n=8, p<0.05 (FIG. 4B)): markedly suppresses
- Gene expressions of Col1a1, Col3a1, S100a4 and Acta2 (QRT-PCR) ([1]; T4 injected at day 7 after bleomycin, n=8, p<0.05 (FIG. 4D)): significantly suppresses
- Fibrotic and inflammatory response to bleomycin, histological examination by masson trichrome staining ([1]; T4 treatment at either day 3 or day 7 (FIG. 4G)): attenuated
- Hydroxyproline measurements [1, 5]: no statistically significant reduction; also recorded: no statistical difference in the T4 treated group from the saline group
- Hydroxyproline measurements [1, 6]: no statistically significant reduction; also recorded: no statistical difference in the T4 treated group from the saline group
